Test results as given in EP0049683A2, “Imidazo-rifamycines, process for their preparation, pharmaceutical preparations containing them and their use” (CIBA-GEIGY AG, priority 1980, dated 1982).
Converted amounts (≈) assume the structure as drawn.

Columns and labels:
Test in all cases: Agar dilution MIC in DST agar (Ericsson and Sherris)
Assay type in all cases: cell-based
[1] = tested on: Proteus morganii 1518; settings: for MIC Prot. 1518: in vitro; for MIC: Morganella morganii, 1518, in vitro, read-out: MIC Prot. 1518
Source text: (§1) Die antibiotische Aktivität der Testverbindungen in vitro wurde durch die Agarverdünnungsmethode nach Ericsson, H.M., und Sherris, S.C., 1971, Acta Path. Microb. Scand. Section B, Suppl. No. 217, Bd. 1-90, in DST Agara ermittelt. Die gefundenen, das Wachstum der Testorganismen noch hemmenden Minimalkonzentrationen (MIC = minimum inhibiting concentrations) werden in Mikrogramm pro Milliliter (µg/ml) für die geprüften Verbindungen in der Tabelle 1 angegeben.

[2] = tested on: Pseudomonas aeruginosa K 799/61; settings: for MIC Pseu. 799: in vitro, agar dilution, DST agar; for MIC: Pseudomonas aeruginosa, K799/61, read-out: MIC Pseu. 799
Source text: as §1

[3] = tested on: Escherichia coli 205; settings: for MIC Esch. 205: in vitro; for MIC: Escherichia coli, 205, in vitro, read-out: MIC Esch. 205
Source text: as §1

[4] = tested on: Escherichia coli 2018; settings: for MIC Esch. 2018: in vitro; for MIC: Escherichia coli, 2018, in vitro, read-out: MIC Esch. 2018
Source text: as §1

[5] = tested on: Proteus morganii 2359; settings: for MIC Prot. 2359: in vitro; for MIC: Morganella morganii, 2359, in vitro, read-out: MIC Prot. 2359
Source text: as §1

[6] = tested on: Staphylococcus aureus 10B; settings: in vitro; for MIC: Staphylococcus aureus, 10B, read-out: MIC Staph. 10B
Source text: as §1

[7] = tested on: Salmonella Typhimurium 277; settings: in vitro; for MIC: Salmonella enterica, TYPHIMURIUM, read-out: MIC Salm. 277
Source text: as §1

Molecule	MIC Prot. 1518 [1]	MIC Pseu. 799 [2]	MIC Esch. 205 [3]	MIC Esch. 2018 [4]	MIC Prot. 2359 [5]	MIC Staph. 10B [6]	MIC [1]	MIC [2]	MIC [3]	MIC [4]	MIC [5]	MIC [6]	MIC [7]	MIC Salm. 277 [7]
4-[4-(1-Ethylpropyl)-piperazinyl]-imidazolo[4,5-c]rifamycin SV [Verbindung 41]	8 µg/mL	32 µg/mL	8 µg/mL	2 µg/mL	8 µg/mL	0.005 µg/mL								
CO[C@H]1/C=C/O[C@@]2(C)Oc3c(C)c(O)c4c(O)c(c5nc(N6CCN(C7CCCCC7)CC6)[nH]c5c4c3C2=O)NC(=O)/C(C)=C\C=C\[C@H](C)[C@H](O)[C@@H](C)[C@@H](O)[C@@H](C)[C@H](OC(C)=O)[C@@H]1C [Verbindung 51, 4-(4-Cyclohexylpiperazinyl)-imidazolo[4,5-c]rifamycin SV]							8 µg/mL (≈ 9.01 µM)	8 µg/mL (≈ 9.01 µM)	8 µg/mL (≈ 9.01 µM)	32 µg/mL (≈ 36 µM)	8 µg/mL (≈ 9.01 µM)	0.01 µg/mL (≈ 0.0113 µM)	32 µg/mL (≈ 36 µM)	
CO[C@H]1/C=C/O[C@@]2(C)Oc3c(C)c(O)c4c(O)c(c5nc(N6CCN(CC7CCCCCC7)CC6)[nH]c5c4c3C2=O)NC(=O)/C(C)=C\C=C\[C@H](C)[C@H](O)[C@@H](C)[C@@H](O)[C@@H](C)[C@H](OC(C)=O)[C@@H]1C [Verbindung 56]							8 µg/mL (≈ 8.73 µM)	32 µg/mL (≈ 34.9 µM)	8 µg/mL (≈ 8.73 µM)	8 µg/mL (≈ 8.73 µM)	8 µg/mL (≈ 8.73 µM)	0.005 µg/mL (≈ 0.00546 µM)	32 µg/mL (≈ 34.9 µM)	
CCC(C)CCN1CCN(c2nc3c([nH]2)c2c(O)c4c(O)c(C)c5c(c43)C(=O)[C@@](C)(O/C=C/[C@H](OC)[C@@H](C)[C@@H](OC(C)=O)[C@H](C)[C@H](O)[C@H](C)[C@@H](O)[C@@H](C)/C=C/C=C(/C)C(=O)N2)O5)CC1 (some centres unmarked) [Verbindung 42, 4-[4-(3-Methylpentyl)-piperazinyl]-imidazolo[4,5-c]-rifamycin SV]							8 µg/mL (≈ 8.99 µM)	32 µg/mL (≈ 36 µM)	8 µg/mL (≈ 8.99 µM)	8 µg/mL (≈ 8.99 µM)	8 µg/mL (≈ 8.99 µM)	0.005 µg/mL (≈ 0.00562 µM)	32 µg/mL (≈ 36 µM)	
4-(N-Butyl-N-methylamino)-imidazolo[4,5-c]rifamycin SV [Verbindung 9]	1 µg/mL	8 µg/mL	8 µg/mL	8 µg/mL	8 µg/mL									32 µg/mL
4-(4-Isopropyloxycarbonylpiperazinyl)-imidazolo[4,5-c]-rifamycin SV [Verbindung 68]	8 µg/mL	8 µg/mL	32 µg/mL	32 µg/mL	32 µg/mL	0.01 µg/mL								32 µg/mL
4-(2,6-Dimethyl-morpholino)-imidazolo[4,5-c]rifamycin SV [Verbindung 29]	8 µg/mL	8 µg/mL	32 µg/mL	32 µg/mL	8 µg/mL									128 µg/mL
4-(4-Heptylpiperazinyl)-imidazolo[4,5-c]rifamycin SV [Verbindung 36]	8 µg/mL	8 µg/mL	2 µg/mL	8 µg/mL	8 µg/mL									32 µg/mL
CCN(CC)c1nc2c3c(O)c4c(O)c(C)c5c(c4c2[nH]1)C(=O)C(C)(OC=CC(OC)C(C)C(OC(C)=O)C(C)C(O)C(C)C(O)C(C)C=CC=C(C)C(=O)N3)O5 (centres unmarked) [Verbindung 6, 4-Diethylamino-imidazolo[4,5-c]rifamycin SV]							128 µg/mL (≈ 161 µM)	128 µg/mL (≈ 161 µM)	128 µg/mL (≈ 161 µM)	128 µg/mL (≈ 161 µM)	128 µg/mL (≈ 161 µM)		128 µg/mL (≈ 161 µM)	
4-(4-Hexylpiperazinyl)-imidazolo[4,5-c]rifamycin SV [Verbindung 35]	8 µg/mL	8 µg/mL	8 µg/mL	8 µg/mL	8 µg/mL									32 µg/mL
4-(4-Isobutyl-2-methyl-piperazinyl)-imidazolo[4,5-c]rifamycin SV [Verbindung 75]	2 µg/mL	32 µg/mL	8 µg/mL	8 µg/mL	8 µg/mL	0.01 µg/mL								32 µg/mL
C=C(C)CN1CCN(c2nc3c([nH]2)c2c(O)c4c(O)c(C)c5c(c43)C(=O)[C@@](C)(O/C=C/[C@H](OC)[C@@H](C)[C@@H](OC(C)=O)[C@H](C)[C@H](O)[C@H](C)[C@@H](O)[C@@H](C)/C=C/C=C(/C)C(=O)N2)O5)CC1 [Verbindung 46, 4-[4-(2-Methyl-2-propenyl)-piperazinyl]-imidazolo[4,5-c]-rifamycin SV]							8 µg/mL (≈ 9.3 µM)	32 µg/mL (≈ 37.2 µM)	32 µg/mL (≈ 37.2 µM)	8 µg/mL (≈ 9.3 µM)	8 µg/mL (≈ 9.3 µM)		32 µg/mL (≈ 37.2 µM)	
CO[C@H]1/C=C/O[C@@]2(C)Oc3c(C)c(O)c4c(O)c(c5[nH]c(N6CCc7ccccc76)nc5c4c3C2=O)NC(=O)/C(C)=C\C=C\[C@H](C)[C@H](O)[C@@H](C)[C@@H](O)[C@@H](C)[C@H](OC(C)=O)[C@@H]1C [Verbindung 20, 4-Indolinyl-imidazolo[4,5-c]rifamycin SV]							4 µg/mL (≈ 4.77 µM)	16 µg/mL (≈ 19.1 µM)	8 µg/mL (≈ 9.54 µM)	8 µg/mL (≈ 9.54 µM)	8 µg/mL (≈ 9.54 µM)		32 µg/mL (≈ 38.1 µM)	
CCCC(C)CN1CCN(c2nc3c([nH]2)c2c(O)c4c(O)c(C)c5c(c43)C(=O)[C@@](C)(O/C=C/[C@H](OC)[C@@H](C)[C@@H](OC(C)=O)[C@H](C)[C@H](O)[C@H](C)[C@@H](O)[C@@H](C)/C=C/C=C(/C)C(=O)N2)O5)CC1 (some centres unmarked) [Verbindung 39, 4-[4-(2-Methylpentyl)-piperazinyl]-imidazolo[4,5-c]-rifamycin SV]							8 µg/mL (≈ 8.99 µM)	32 µg/mL (≈ 36 µM)	8 µg/mL (≈ 8.99 µM)	8 µg/mL (≈ 8.99 µM)	8 µg/mL (≈ 8.99 µM)		32 µg/mL (≈ 36 µM)	
C=CCN1CCN(c2nc3c([nH]2)c2c(O)c4c(O)c(C)c5c(c43)C(=O)[C@@](C)(O/C=C/[C@H](OC)[C@@H](C)[C@@H](OC(C)=O)[C@H](C)[C@H](O)[C@H](C)[C@@H](O)[C@@H](C)/C=C/C=C(/C)C(=O)N2)O5)CC1 [Verbindung 44, 4-(4-Allylpiperazinyl)-imidazolo[4,5-c]rifamycin SV]							8 µg/mL (≈ 9.46 µM)	32 µg/mL (≈ 37.8 µM)	8 µg/mL (≈ 9.46 µM)	8 µg/mL (≈ 9.46 µM)	8 µg/mL (≈ 9.46 µM)		32 µg/mL (≈ 37.8 µM)	
CO[C@H]1/C=C/O[C@@]2(C)Oc3c(C)c(O)c4c(O)c(c5nc(N6CCN(c7ccccc7)CC6)[nH]c5c4c3C2=O)NC(=O)/C(C)=C\C=C\[C@H](C)[C@H](O)[C@@H](C)[C@@H](O)[C@@H](C)[C@H](OC(C)=O)[C@@H]1C [Verbindung 52, 4-(4-Phenylpiperazinyl)-imidazolo[4,5-c]rifamycin SV]							8 µg/mL (≈ 9.07 µM)	32 µg/mL (≈ 36.3 µM)	32 µg/mL (≈ 36.3 µM)	8 µg/mL (≈ 9.07 µM)	8 µg/mL (≈ 9.07 µM)		32 µg/mL (≈ 36.3 µM)	
4-(4-Pentylpiperazinyl)-imidazolo[4,5-c]rifamycin SV [Verbindung 34]	8 µg/mL	32 µg/mL	8 µg/mL	2 µg/mL	8 µg/mL									32 µg/mL
4-Thiomorpholino-imidazolo[4,5-c]rifamycin SV [Verbindung 30]	8 µg/mL	32 µg/mL	8 µg/mL	8 µg/mL	8 µg/mL									32 µg/mL
